Results on 28 compounds are retold here after PubChem BioAssay (NCI).

SMILES strings stand for the structures.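 Each compound was tested at five concentrations against cells in 96-well plates for 48 hours. GI50 marks 50% less growth. Definition used: TGI = concentration required for complete inhibition of growth.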

What all share (experiment): NCI tumour cell line growth inhibition, 48 h
Test [1] has as its system CAKI-1 renal.
For test [2], the system named is SF-539 CNS.
Test [3] has as its system A498 renal.
In test [4] the test system is UACC-257 melanoma.
Test [5] concerns COLO 205 colon.
The test system of test [6] is NCI-H460 lung.
Test [7] deals with SN12C renal.
Test [8] has as its system HCT-116 colon.
For test [9], the system named is MDA-MB-231 breast.
The test system of test [10] is KM20L2 colon.

In the case of `CC(=O)N(CN1C(=O)CCC1C(=O)O)c1ccccc1` (stereo not drawn), the TGI in test [1], in test [2], in [3], in test [4], in test [5] and in test [6] was more than 100 µM each time. Moreover, the TGI in test [7], in test [8] and in [9] was more than 100 µM each time.
Regarding `CC(=O)O[C@H]1C#C/C=C\C#CC[C@@H]2C(=O)N(C(=O)OC(C)(C)C)[C@@H]12`, the TGI in test [1] is more than 54 µM; in test [2], 18.5 µM; in test [3], more than 100 µM; in [4], more than 100 µM; in test [5], more than 100 µM; in [6] it was 38.7 µM. Besides, the TGI in test [7] was more than 71.6 µM; in test [8], more than 89.4 µM; in test [9], more than 100 µM.
In the case of `OC1CCCC1C(O)(C(F)(F)F)C(F)(F)F` (stereo not drawn), the TGI in test [1], in [2], in [3], in test [4], in [5] and in test [6] was more than 100 µM throughout. Further, the TGI in [7], in [8] and in [9] was more than 100 µM throughout.
For `COc1ccc(/C=C/c2cc(O)cc(OC)c2)cc1`, the TGI in test [1], in [2], in [3], in test [4], in test [5] and in [6] was more than 100 µM each time. For the same compound, the TGI in [7], in test [8] and in test [9] was more than 100 µM each time.
`COC(=O)C1=C(O)C(C(=O)OC)[C@@]2(O)[C@@H](C(=O)OC)C(c3ccc(OC(=O)/C(=C/c4ccc(Cl)cc4)c4ccc(Cl)cc4)cc3)C[C@@H]1[C@@H]2C(=O)OC` (stereo partly drawn): the TGI in test [1] was 85.9 µM; in test [2], 24.6 µM; in [3], more than 100 µM; in test [4] it was more than 100 µM; in test [5], 92.6 µM; in test [6], more than 100 µM. Also, the TGI in [7] is more than 100 µM; in test [8], more than 100 µM; in test [9], 82.8 µM.
As to `O=C(/C=C/c1ccc(-c2ccccc2[N+](=O)[O-])o1)NCc1ccc(C(=O)NCCc2ccccc2)cc1`, the TGI in [1], in test [2], in test [3], in [4], in test [5] and in test [6] was more than 100 µM in each case. For the same compound, the TGI in test [7], in test [8] and in test [9] was more than 100 µM each time.
On to `O=C1c2[nH]cc(CN3CCNCC3)c2C(=O)c2c1c(O)c1ccccc1c2O`, for which the GI50 in [1] is 2.21 µM; in [2] it was 1.85 µM; in [3], 1.01 µM; in test [4], 4.47 µM; in [5], 1.59 µM; in test [6] it was 18.5 µM. Moreover, the GI50 in [7] was 1.78 µM; in test [8] it was 1.07 µM; in [9] it was 1.51 µM. Besides, the TGI is 5.94 µM in [1]; 3.31 µM in test [2]; 2.38 µM in test [3]; 3.39 µM in test [5]; more than 78.3 µM in [6]; 5.15 µM in test [7]. Further, the TGI is 2.25 µM in test [8] and 3.18 µM in [9].
On to `O=C1/C(=C/c2ccccc2)CCc2ccc(Cl)nc21`, for which the TGI is 10.3 µM in test [1]; 15.4 µM in [2]; 34.6 µM in [3]; 20.4 µM in [4]; 40.5 µM in [5]; more than 64 µM in test [6]. Also, the TGI was 18.6 µM in [7], 7 µM in test [8] and 40.6 µM in test [9].
In the case of `Cc1cccc(C(C)(C)C)c1NC(=O)/C(Cc1nc2ccc([N+](=O)[O-])cc2[nH]c1=O)=N/NC(=O)C[N+](C)(C)C`, the TGI in [1], in [2], in [3], in [4], in test [5] and in test [6] was more than 100 µM each time. Further, the TGI in test [7], in [8] and in test [9] was more than 100 µM each time.
Consider `CC1=CC(O)C(O)C2(C)C1CC1OC(=O)C(O)C3C(C)C(O)C4(O)OCC13C42` (stereo not drawn), for which the TGI is 205 µM in test [1]; 237 µM in test [2]; 72.1 µM in test [3]; 467 µM in test [4]; 79.7 µM in [5]; 50 µM in test [6]. The TGI in [7] was more than 625 µM; in [8], more than 625 µM; in [10], 233 µM.
For `CC(CCC(=O)O)[C@H]1CCC2[C@H]3C(CC[C@@]21C)[C@@]1(C)CCC(O)C[C@H]1C[C@@H]3O` (stereo partly drawn), the TGI in test [1], in test [2], in [3], in [4], in test [5] and in test [6] was more than 100 µM each time. The TGI in test [7], in test [8] and in [9] was more than 100 µM each time.
For `CC(=O)/C=C/C=C(\C)CC/C=C(\C)CC(C)C`, the TGI in test [1] is more than 100 µM; in test [2], 46.8 µM; in [3], 83.3 µM; in test [4], 60 µM; in test [5], 39 µM; in [6] it was more than 100 µM. The TGI in [7] is 96.2 µM; in [8], 62.8 µM; in test [9], more than 100 µM.
As to `C/C(O)=C(\C=N\C(N)=S)C(=O)Nc1ccccc1C`, the TGI in [1], in [2], in test [3], in test [4], in test [5] and in test [6] was more than 100 µM in each case. Further, the TGI in [7], in [8] and in test [9] was more than 100 µM in each case.
`CCOC(=O)c1ccc2nc(NC(=O)COC(=O)CSc3nc(C)cc(C)n3)sc2c1`: the TGI in [1] is more than 100 µM; in test [2], 80.6 µM; in test [3], more than 100 µM; in test [4] it was more than 100 µM; in test [5] it was more than 100 µM; in test [6], more than 100 µM. The TGI in test [7], in test [8] and in test [9] was more than 100 µM throughout.
On to `COc1cc(C2C3=C(CCC3=O)Oc3cc4c(cc32)OCO4)cc(OC)c1OC` (stereo not drawn), for which the TGI in test [1] was 30.3 µM; in test [4] it was more than 100 µM; in test [5], 1.81 µM; in test [6] it was more than 100 µM; in test [7] it was more than 100 µM; in test [8], more than 100 µM. Also, the TGI in test [10] was 0.664 µM.
For the compound `Cc1cc(S(=O)(=O)Nc2nnc3c(C(F)(F)F)cc(Cl)cn23)c(S)cc1Cl`, the TGI in test [1], in test [2], in test [3], in test [4], in [5] and in [6] was more than 100 µM throughout. The TGI in test [7], in test [8] and in test [9] was more than 100 µM throughout.
`CCC1(CC)C(=O)CC[C@@]2(C)C1=CC[C@H]1[C@@H]3CC[C@H](O)[C@@]3(C)CC[C@@H]12`: the TGI in [1] was more than 100 µM; in test [2] it was more than 100 µM; in test [3], 44.6 µM; in test [4], 82.6 µM; in [5], 88.9 µM; in test [6], 32.2 µM. For the same compound, the results for the TGI in test [7], in [8] and in test [9] were 31.6 µM, 63.8 µM and more than 100 µM, respectively.
Turning to `OCC1OC(n2cnc3cccnc32)CC1O` (stereo not drawn), the TGI in [1], in test [2], in test [3], in test [4], in test [5] and in test [6] was more than 100 µM throughout. Further, the TGI in test [7], in [8] and in test [9] was more than 100 µM throughout.
Consider `CN(C)CCOC(=O)COc1ccc(Cl)cc1`, for which the TGI in test [1], in test [2], in test [3], in test [4], in test [5] and in test [6] was more than 100 µM in each case. The TGI in test [7], in test [8] and in test [9] was more than 100 µM in each case.
For `CCCn1c(C23CC4CC(CC(C4)C2)C3)nc2ccc(Cl)cc2c1=O`, the TGI is more than 100 µM in test [1]; more than 100 µM in test [2]; 66.1 µM in test [3]; more than 100 µM in test [4]; more than 100 µM in [5]; more than 100 µM in test [6]. Moreover, the TGI in test [7], in test [8] and in test [9] was more than 100 µM in each case.
As for `C#CCNC(Cc1cnc[nH]1)C(=O)O` (stereo not drawn), the TGI in test [1], in test [2], in [3], in test [4], in test [5] and in [6] was more than 100 µM each time. The TGI in [7], in [8] and in test [9] was more than 100 µM throughout.
Regarding `S=C(N/N=C\C=N/NC(=S)N1CCCCCC1)N1CCCCCC1`, the TGI in [1], in [2], in test [3], in [4], in test [5] and in [6] was more than 100 µM each time. Besides, the TGI in test [7], in [8] and in test [9] was more than 100 µM in each case.
On to `C=CCC(CNC(=O)OCc1ccccc1)O[Si](C)(C)C(C)(C)C` (stereo not drawn), for which the TGI in test [1] is more than 100 µM; in test [2], 93.2 µM; in test [3], more than 100 µM; in test [4], 83.7 µM; in [5], 30.8 µM; in [6], more than 100 µM. Besides, the TGI in [7] is more than 100 µM; in test [8], 73.7 µM; in test [9], 37 µM.
As to `CC(NC(=O)/C(=C/c1ccccc1O)NC(=O)c1ccccc1)C(=O)O` (stereo not drawn), the TGI in test [1] was 37.2 µM; in test [2] it was 46.4 µM; in [3] it was more than 100 µM; in test [4] it was more than 100 µM; in [5] it was more than 100 µM; in [6], 64.9 µM. In addition, the TGI in test [7] was 48.1 µM; in [8], more than 100 µM; in test [9], 60 µM.
Regarding `O=C(C1=C(C(=O)c2ccccc2)SC2(S1)C(C(=O)c1ccccc1)=C(C(=O)c1ccccc1)Sc1c2ssc1=O)c1ccccc1`, the TGI in test [1] is more than 100 µM; in test [2] it was 57.6 µM; in [3], 31.2 µM; in [4], more than 100 µM; in [5] it was more than 100 µM; in test [6], more than 100 µM. Moreover, the TGI in test [7], in [8] and in [9] was more than 100 µM throughout.
As to `CCCCCc1cc2c(cc1O)CC[C@@H]1[C@@H]2CC[C@]2(C)[C@@H](O)CC[C@@H]12`, the TGI in test [1] was found to be 40.4 µM; in [2], 39.5 µM; in test [3], 36.1 µM; in test [4], 43.1 µM; in test [5] it was 29.6 µM; in test [6] it was 36.5 µM. Moreover, the TGI in test [7] came out at 29.8 µM; in [8], 31.6 µM; in test [9] it was 33.3 µM.
In the case of `N#Cc1c(Nc2ccc(F)cc2)[n+]([O-])c2ccc(Cl)cc2[n+]1[O-]`, the TGI came to 20.9 µM in test [1]; 7.31 µM in test [2]; 8.63 µM in [3]; 11.9 µM in [4]; 4.52 µM in test [5]; 7.97 µM in test [6]. Moreover, the TGI in test [7] is 13.4 µM; in test [8] it was more than 100 µM; in test [9], 16.7 µM.
For `CC[C@]12C=CCN3CCC4(c5cc(N=Nc6ccccc6)c(OC)cc5N(C)[C@H]4[C@@](O)(C(=O)OC)[C@@H]1OC(C)=O)[C@@H]32` (stereo partly drawn), the TGI in [1] came to 69.8 µM; in [2], 48.3 µM; in test [3], 32.2 µM; in [4] it was 34.9 µM; in [5], 77.1 µM; in test [6], 33.5 µM. The TGI came to 35.7 µM in test [7], 31.2 µM in [8] and 31.6 µM in test [9].
